Measured values as given in BindingDB's records for doi:10.1074/jbc.M805358200 (University of Pittsburgh, 2008).

Assays:
Test in all cases: IMAP-Based HTS FP Assay/ TR-FRET Assay
[1] = target: Serine/threonine-protein kinase PLK1 (Homo sapiens, UniProt P53350)
Text: (§1) An IMAP-based PKD HTS FR assay was used for primary HTS of the PMLSC library to identify hit compounds and subsequent secondary hit confirmation studies.

[2] = target: RAC-alpha serine/threonine-protein kinase (Homo sapiens, UniProt P31749)
Text: as §1

[3] = target: Cyclin-dependent kinase 7 (Homo sapiens, UniProt P50613)
Text: as §1

[4] = target: T1, Serine/threonine-protein kinase D1 (Homo sapiens, UniProt Q15139)
T1 sequence (Q15139 whole entry): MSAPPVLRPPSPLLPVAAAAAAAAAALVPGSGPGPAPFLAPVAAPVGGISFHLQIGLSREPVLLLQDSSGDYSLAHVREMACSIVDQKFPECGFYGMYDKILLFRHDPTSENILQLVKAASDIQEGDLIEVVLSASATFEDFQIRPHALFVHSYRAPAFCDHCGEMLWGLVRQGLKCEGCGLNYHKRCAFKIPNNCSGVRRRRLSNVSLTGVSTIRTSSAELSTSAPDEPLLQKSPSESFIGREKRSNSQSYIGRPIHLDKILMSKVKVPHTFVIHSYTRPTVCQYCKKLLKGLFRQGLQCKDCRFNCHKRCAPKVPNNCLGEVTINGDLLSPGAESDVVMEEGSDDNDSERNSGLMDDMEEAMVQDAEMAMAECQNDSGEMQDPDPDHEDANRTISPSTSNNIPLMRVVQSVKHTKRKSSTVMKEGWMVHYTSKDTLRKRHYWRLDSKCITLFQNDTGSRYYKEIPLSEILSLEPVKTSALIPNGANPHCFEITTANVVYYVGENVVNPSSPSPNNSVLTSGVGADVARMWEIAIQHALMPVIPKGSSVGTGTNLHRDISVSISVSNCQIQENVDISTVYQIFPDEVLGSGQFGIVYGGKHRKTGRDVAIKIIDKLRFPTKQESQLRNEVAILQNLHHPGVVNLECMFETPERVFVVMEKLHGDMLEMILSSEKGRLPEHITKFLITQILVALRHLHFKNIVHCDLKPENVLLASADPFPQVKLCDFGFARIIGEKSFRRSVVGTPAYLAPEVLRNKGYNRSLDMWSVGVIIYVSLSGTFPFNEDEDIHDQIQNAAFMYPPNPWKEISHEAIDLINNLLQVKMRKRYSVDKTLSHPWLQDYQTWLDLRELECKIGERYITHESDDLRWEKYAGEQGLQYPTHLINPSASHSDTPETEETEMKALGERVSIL
Text: as §1

RAC-alpha serine/threonine-protein kinase, sequence (P31749 whole entry): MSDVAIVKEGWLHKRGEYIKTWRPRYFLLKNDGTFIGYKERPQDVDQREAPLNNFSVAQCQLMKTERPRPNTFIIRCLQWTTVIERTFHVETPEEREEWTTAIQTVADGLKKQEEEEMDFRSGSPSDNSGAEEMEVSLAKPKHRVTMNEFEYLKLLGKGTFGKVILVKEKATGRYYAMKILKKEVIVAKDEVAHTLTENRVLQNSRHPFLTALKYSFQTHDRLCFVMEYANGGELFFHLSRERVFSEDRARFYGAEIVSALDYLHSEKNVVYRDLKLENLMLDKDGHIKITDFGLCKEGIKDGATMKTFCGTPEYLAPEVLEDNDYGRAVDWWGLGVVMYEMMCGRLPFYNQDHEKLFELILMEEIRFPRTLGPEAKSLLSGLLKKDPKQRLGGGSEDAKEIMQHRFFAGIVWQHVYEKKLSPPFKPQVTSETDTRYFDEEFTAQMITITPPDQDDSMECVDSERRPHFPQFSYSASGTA
Serine/threonine-protein kinase PLK1, sequence (P53350 whole entry): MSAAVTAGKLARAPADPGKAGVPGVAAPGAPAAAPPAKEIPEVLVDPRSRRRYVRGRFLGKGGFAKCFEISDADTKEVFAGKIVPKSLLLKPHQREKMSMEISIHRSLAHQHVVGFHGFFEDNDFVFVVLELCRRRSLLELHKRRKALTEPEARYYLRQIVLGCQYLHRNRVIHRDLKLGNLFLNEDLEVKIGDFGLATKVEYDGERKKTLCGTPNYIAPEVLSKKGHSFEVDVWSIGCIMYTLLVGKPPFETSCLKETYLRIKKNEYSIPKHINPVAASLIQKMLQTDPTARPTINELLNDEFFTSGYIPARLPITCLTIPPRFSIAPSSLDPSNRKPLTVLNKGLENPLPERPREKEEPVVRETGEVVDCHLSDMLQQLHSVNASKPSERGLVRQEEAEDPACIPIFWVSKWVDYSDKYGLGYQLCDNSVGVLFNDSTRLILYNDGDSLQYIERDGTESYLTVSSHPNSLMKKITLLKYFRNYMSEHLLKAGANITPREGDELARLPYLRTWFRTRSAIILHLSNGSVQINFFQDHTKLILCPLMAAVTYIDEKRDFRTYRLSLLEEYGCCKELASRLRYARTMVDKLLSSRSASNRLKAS
Cyclin-dependent kinase 7, sequence (P50613 whole entry): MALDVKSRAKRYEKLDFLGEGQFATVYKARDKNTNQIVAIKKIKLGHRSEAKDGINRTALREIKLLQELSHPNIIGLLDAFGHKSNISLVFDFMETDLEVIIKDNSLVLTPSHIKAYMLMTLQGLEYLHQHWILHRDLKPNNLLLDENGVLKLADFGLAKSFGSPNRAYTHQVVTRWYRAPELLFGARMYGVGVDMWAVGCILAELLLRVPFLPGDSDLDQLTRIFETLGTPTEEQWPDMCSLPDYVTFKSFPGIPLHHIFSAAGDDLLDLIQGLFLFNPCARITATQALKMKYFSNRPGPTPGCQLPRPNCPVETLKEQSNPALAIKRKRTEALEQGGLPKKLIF

Compound	IC50 [1] [µM]	IC50 [2] [µM]	IC50 [3] [µM]	IC50 [4] [µM]
O=c1oc2ccc(O)cc2c2c1NCCC2 [CID 797718]	21.9	> 50	8.4	–
O=C1NCCCc2c1oc1ccc(O)cc21 [7-hydroxy-2,3,4,5-tetrahydro-[1]benzofuro[2,3-c]azepin-1-one]	20.3	> 50	15.3	0.5
